From patent US9273057B2 (Bristol-Myers Squibb Company, priority 2012, dated 2016)

These compounds were tested against CK2A1 (CK2α/β) (Homo sapiens, UniProt P68400) (assay: CK2 kinase assay, CK2A1 (CK2α/β)). Conditions: Table A; read-out: CK2A1 (CK2α/β) (IC50).
Type: biochemical

CK2A1 (CK2α/β), sequence (P68400 whole entry, species assumed): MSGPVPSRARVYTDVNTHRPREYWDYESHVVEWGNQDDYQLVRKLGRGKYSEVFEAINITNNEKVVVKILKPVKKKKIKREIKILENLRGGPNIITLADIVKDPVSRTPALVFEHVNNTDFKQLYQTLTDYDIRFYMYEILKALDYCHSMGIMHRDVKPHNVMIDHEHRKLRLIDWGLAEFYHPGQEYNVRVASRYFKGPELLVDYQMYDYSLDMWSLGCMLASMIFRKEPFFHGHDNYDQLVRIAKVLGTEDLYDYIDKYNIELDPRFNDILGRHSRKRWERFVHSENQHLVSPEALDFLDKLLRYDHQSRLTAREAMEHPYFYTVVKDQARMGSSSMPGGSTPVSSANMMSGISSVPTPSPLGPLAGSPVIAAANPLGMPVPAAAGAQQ
CK2A1 (CK2α/β), sequence (P67870 whole entry partner, species assumed): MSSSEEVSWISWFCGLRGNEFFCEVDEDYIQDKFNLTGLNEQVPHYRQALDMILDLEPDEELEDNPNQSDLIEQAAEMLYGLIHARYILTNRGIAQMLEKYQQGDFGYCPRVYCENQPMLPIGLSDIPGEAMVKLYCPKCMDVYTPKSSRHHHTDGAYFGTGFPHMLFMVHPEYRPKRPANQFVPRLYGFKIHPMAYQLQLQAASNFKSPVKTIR

Row | SMILES | IC50 [nM]
1 | CC(C)(O)[C@H]1CN(c2cc(C#N)cc(Nc3nc(NC4CC4)c4ncc(C#N)n4n3)c2Cl)CCO1 [Example 38, 2-((2-chloro-5-cyano-3-((2R)-2-(1-hydroxy-1-methylethyl)-4-morpholinyl)phenyl)amino)-4-(cyclopropylamino)imidazo [2,1-f][1,2,4]triazine-7-carbonitrile] | 1.2
2 | COC(=O)Nc1cc(Nc2nc(NC3CC3)c3ncc(C#N)n3n2)c(Cl)c(N2CCN(C)CC2)c1 [Example 200, methyl (4-chloro-3-((7-cyano-4-(cyclopropylamino)imidazo[2,1-f][1,2,4]triazin-2-yl)amino)-5-(4-methylpiperazin-1-yl)phenyl)carbamate] | 2.51
3 | N#Cc1cnc2c(NC3CC3)nc(Nc3cc(C(F)F)cc(N4CCN(CC(F)F)CC4)c3Cl)nn12 [Example 248, 2-((2-chloro-3-(4-(2,2-difluoroethyl)-1-piperazinyl)-5-(difluoromethyl)phenyl)amino)-4-(cyclopropylamino)imidazo[2,1-f][1,2,4]triazine-7-carbonitrile] | 3.27
4 | CC(=O)N1CC(N2CCN(c3cc(OC(F)F)cc(Nc4nc(NC5CC5)c5ncc(C#N)n5n4)c3Cl)CC2)C1 [Example 559, 2-((3-(4-(1-acetylazetidin-3-yl)piperazin-1-yl)-2-chloro-5-(difluoromethoxy)phenyl)amino)-4-(cyclopropylamino)imidazo[2,1-f][1,2,4]triazine-7-carbonitrile] | 2.37
5 | N#Cc1cc(Nc2nc(NC3CC3)c3ncc(C#N)n3n2)c(Cl)c(N2CCN(C3CN(C(=O)C(F)F)C3)CC2)c1 [Example 491, 2-[(2-chloro-5-cyano-3-{4-[1-(2,2-difluoroacetyl)azetidin-3-yl]piperazin-1-yl}phenyl)amino]-4-(cyclopropylamino)imidazo[2,1-f][1,2,4]triazine-7-carbonitrile] | 1.33
6 | CCNc1nc(Nc2ccc3c(c2)c(C#N)cn3C2CCN(C3CN(C[C@H](C)O)C3)CC2)nn2c(C#N)cnc12 [Example 834, (S)-2-((3-cyano-1-(1-(1-(2-hydroxypropyl)azetidin-3-yl)piperidin-4-yl)-1H-indol-5-yl)amino)-4-(ethylamino)imidazo[2,1-f][1,2,4]triazine-7-carbonitrile] | 0.6
7 | CCNc1nc(Nc2cc(C#N)cc(N3CC[C@@H](NC(=O)OC)[C@H](OP(=O)(O)O)C3)c2Cl)nn2c(C#N)cnc12 [Example 337, methyl ((3R,4R)-1-(2-chloro-5-cyano-3-((7-cyano-4-(ethylamino)imidazo[2,1-f][1,2,4]triazin-2-yl)amino)phenyl)-3-(phosphonooxy)piperidin-4-yl)carbamate] | 16
8 | CCNc1nc(Nc2cc(NC(=O)OC)cc(C3CCN(C)CC3)c2Cl)nn2c(C#N)cnc12 [Example 398, methyl (4-chloro-3-((7-cyano-4-(ethylamino)imidazo[2,1-f][1,2,4]triazin-2-yl)amino)-5-(1-methylpiperidin-4-yl)phenyl)carbamate] | 3.3
9 | CCNc1nc(Nc2cc(C#N)cc(N3CC[C@@H](NC(=O)OC)[C@H](OC(=O)[C@H](C)OP(=O)(O)O)C3)c2Cl)nn2c(C#N)cnc12 [Example 340, (S)-(3R,4R)-1-(2-chloro-5-cyano-3-((7-cyano-4-(ethylamino)imidazo[2,1-f][1,2,4]triazin-2-yl)amino)phenyl)-4-((methoxycarbonyl)amino)piperidin-3-yl 2-(phosphonooxy)propanoate] | 6
10 | N#Cc1cc(Nc2nc(NC3CC3)c3ncc(C#N)n3n2)c(Cl)c(N2CCN([C@@H]3COC[C@H]3O)CC2)c1 (racemic) [Example 59, (+/−) 2-((2-chloro-5-cyano-3-(4-((3R,4S)-4-hydroxytetrahydro-3-furanyl)-1-piperazinyl)phenyl)amino)-4-(cyclopropylamino) imidazo[2,1-f][1,2,4] triazine-7-carbonitrile] | 0.59
11 | CC(C)(O)C1CN(C2CCN(c3cc(C#N)cc(Nc4nc(NC5CC5)c5ncc(C#N)n5n4)c3Cl)CC2)CCO1 (racemic) [Example 148, (+/−) 2-((2-chloro-5-cyano-3-(4-(2-(1-hydroxy-1-mcthylethyl)-4-morpholinyl)-1-piperidinyl)phenyl)amino)-4-(cyclopropylamino)imidazo [2,1-f][1,2,4]triazine-7-carbonitrile] | 1.03
12 | CCNc1nc(Nc2cc(C#N)cc(N3CC[C@@H](NC(=O)OC)[C@H](OCOP(=O)(O)O)C3)c2Cl)nn2c(C#N)cnc12 [Example 345, sodium (((3R,4R)-1-(2-chloro-5-cyano-3-((7-cyano-4-(ethylamino)imidazo[2,1-f][1,2,4]triazin-2-yl)amino)phenyl)-4-((methoxycarbonyl)amino)piperidin-3-yl)oxy)methyl phosphate] | 0.8
13 | CC(C)(O)CNCC(O)c1cc(C#N)cc(Nc2nc(NC3CC3)c3ncc(C#N)n3n2)c1Cl (stereo not drawn) [Example 691, 2-((2-chloro-5-cyano-3-(1-hydroxy-2-((2-hydroxy-2-methylpropyl)amino)ethyl)phenyl)amino)-4-(cyclopropylamino)imidazo[2,1-f][1,2,4]triazine-7-carbonitrile] | 1.81
14 | CN(CCN)c1cc(C#N)cc(Nc2nc(NC3CC3)c3ncc(C#N)n3n2)c1Cl [Example 50] | 0.63
15 | CO[C@@H](C)C(=O)N1CC(N2CCN(c3cc(C#N)cc(Nc4nc(NC5CC5)c5ncc(C#N)n5n4)c3Cl)CC2)C1 [Example 521, 2-{[2-chloro-5-cyano-3-(4-{1-[(2S)-2-methoxypropanoyl]azetidin-3-yl}piperazin-1-yl)phenyl]amino}-4-(cyclopropylamino)imidazo[2,1-f][1,2,4]triazine-7-carbonitrile] | 3.35
16 | CNC(=O)CN1CCN(c2cc(C#N)cc(Nc3nc(NC4CC4)c4ncc(C#N)n4n3)c2Cl)C(=O)C1 [Example 625, 2-(4-(2-chloro-5-cyano-3-((7-cyano-4-(cyclopropylamino)imidazo[2,1-f][1,2,4]triazin-2-yl)amino)phenyl)-3-oxopiperazin-1-yl)-N-methylacetamide] | 5.8
17 | COC(=O)Nc1cc(Nc2nc(NC3CC3)c3ncc(C#N)n3n2)c(Cl)c(N2CC(N3CCOCC3)C2)c1 [Example 201, methyl (4-chloro-3-((7-cyano-4-(cyclopropylamino)imidazo[2,1-f][1,2,4]triazin-2-yl)amino)-5-(3-(4-morpholinyl)-1-azetidinyl)phenyl)carbamate] | 2.95
18 | N#Cc1cc(Nc2nc(NC3CC3)c3ncc(C#N)n3n2)c(F)c(N2CCN(C3(C#N)COC3)CC2)c1 [Example 555, 2-((5-cyano-3-(4-(3-cyanooxetan-3-yl)piperazin-1-yl)-2-fluorophenyl)amino)-4-(cyclopropylamino)imidazo[2,1-f][1,2,4]triazine-7-carbonitrile] | 1.23
19 | COC(=O)NC1CCN(c2cc(C#N)cc(Nc3nc(NC4CC4)c4ncc(C#N)n4n3)c2Cl)C[C@H]1N(C)CC(C)(C)O (stereo in doubt) [Example 767, methyl N-[(3R,4S)-1-(2-chloro-5-cyano-3-{[7-cyano-4-(cyclopropylamino)imidazo [2,1-f][1,2,4]triazin-2-yl]amino}phenyl)-3-[(2-hydroxy-2-methylpropyl)(methyl)amino]piperidin-4-yl] carbamate] | 18.1
20 | CCNc1nc(Nc2cc(C#N)cc(N3CC[C@H]4NC(=O)O[C@@H]4C3)c2Cl)nn2c(C#N)cnc12 [Example 375, 2-((2-chloro-5-cyano-3-((3aR,7aR)-2-oxohexahydrooxazolo[5,4-c]pyridin-5(2H)-yl)phenyl)amino)-4-(ethylamino)imidazo[2,1-f][1,2,4]triazine-7-carbonitrile] | 0.43
21 | CCNc1nc(Nc2cc(C#N)cc(N3C[C@H](NC(=O)OC)[C@@H](OC)C3)c2Cl)nn2c(C#N)cnc12 [Example 333, methyl ((3S,4S)-1-(2-chloro-5-cyano-3-((7-cyano-4-(ethylamino)imidazo [2,1-f][1,2,4]triazin-2-yl)amino)phenyl)-4-methoxy-3-pyrrolidinyl)carbamate] | 0.46
22 | CN1CCCC(C(=O)N2CCN(c3cc(C#N)cc(Nc4nc(NC5CC5)c5ncc(C#N)n5n4)c3Cl)CC2)C1 (racemic) [Example 92, (+/−) 2-((2-chloro-5-cyano-3-(4-((1-methyl-3-piperidinyl)carbonyl)-1-piperazinyl)phenyl)amino)-4-(cyclopropylamino) imidazo[2,1-f][1,2,4] triazine-7-carbonitrile] | 1.12
23 | CC(C)(O)c1cc(C#N)cc(Nc2nc(NC3CC3)c3ncc(C#N)n3n2)c1Cl [Example 676, 2-((2-chloro-5-cyano-3-(2-hydroxypropan-2-yl)phenyl)amino)-4-(cyclopropylamino)imidazo[2,1-f][1,2,4]triazine-7-carbonitrile] | 0.41
24 | N#Cc1cc(Nc2nc(NC3CC3)c3ncc(C#N)n3n2)c(Cl)c(N2CCN3C[C@@H](F)C[C@H]3C2)c1 (racemic) [Example 437, (+/−)-2-((2-chloro-5-cyano-3-((7R,8aR)-7-fluorohexahydropyrrolo[1,2-a]pyrazin-2(1H)-yl)phenyl)amino)-4-(cyclopropylamino)imidazo[2,1-f][1,2,4]triazine-7-carbonitrile] | 0.83
25 | N#Cc1cc(Nc2nc(NC3CC3)c3ncc(C#N)n3n2)c(Cl)c(N2CCN(C3CCNC3=O)CC2)c1 (stereo not drawn) [Example 581, 2-({2-chloro-5-cyano-3-[4-(2-oxopyrrolidin-3-yl)piperazin-1-yl]phenyl}amino)-4-(cyclopropylamino)imidazo [2,1-f][1,2,4]triazine-7-carbonitrile] | 3.59
26 | CC(O)CN1CCN(c2cc(C(F)F)cc(Nc3nc(NC4CC4)c4ncc(C#N)n4n3)c2Cl)CC1 (racemic) [Example 249, (+/−) 2-((2-chloro-5-(difluoromethyl)-3-(4-(2-hydroxypropyl)-1-piperazinyl)phenyl)amino)-4-(cyclopropylamino)imidazo[2,1-f][1,2,4]triazine-7-carbonitrile] | 2.22
27 | COC(=O)N[C@H]1CCN(c2cc(C#N)cc(Nc3nc(NC4CC4)c4ncc(C#N)n4n3)c2Cl)C[C@H]1NCC(F)F [Example 749, methyl ((3R,4S)-1-(2-chloro-5-cyano-3-((7-cyano-4-(cyclopropylamino)imidazo[2,1-f][1,2,4]triazin-2-yl)amino)phenyl)-3-((2,2-difluoroethyl)amino)piperidin-4-yl)carbamate] | 0.7
